Tested on: bacteria
Format: cell-based

Q: Which bacteria killing activity does the source give for `NC[C@H]1O[C@H](O[C@H]2[C@H](O)[C@@H](O[C@H]3O[C@H](CO)[C@@H](O)[C@H](N)[C@H]3O)[C@H](N)C[C@@H]2N)[C@H](N)C[C@@H]1O` [tobramycin] here?
A: comparable activity
